Laboratory results taken from patent publication US4069382A, “9-(5-O-Acyl-β-D-arabinofuranosyl)adenine compounds” (Parke, Davis & Company, priority 1976, dated 1978).
Values after ≈ are worked out from the molar mass of the structure shown.

Experiment: water solubility
Type: physicochemical
Settings: ph 7 buffer, pH 7

| Structure (SMILES) | water solubility |
| --- | --- |
| CCCC(=O)OC[C@H]1O[C@@H](n2cnc3c(N)ncnc32)[C@@H](O)[C@@H]1O [Example 3, 9-(5-O-butyryl-β-D-arabinofuranosyl)adenine] | 16.1 mg/mL (≈ 47.7 mM) |

Same assay, conditions: ph 7 buffer, pH 7, aqueous buffer

| solubility | Structure (SMILES) |
| --- | --- |
| 7000 µg/mL (≈ 19.9 mM) | CC(C)(C)C(=O)OC[C@H]1O[C@@H](n2cnc3c(N)ncnc32)[C@@H](O)[C@@H]1O [Example 6, 9-[5-O-(2,2-dimethylpropionyl)-β-D-arabinofuranosyl]-adenine] |
| 9900 µg/mL (≈ 32 mM) | CC(=O)OC[C@H]1O[C@@H](n2cnc3c(N)ncnc32)[C@@H](O)[C@@H]1O [Example 1, 9-(5-O-acetyl-β-D-arabinofuranosyl)adenine] |

More lines, now with the values behind:

| Structure (SMILES) | solubility |
| --- | --- |
| CC(C)CC(=O)OC[C@H]1O[C@@H](n2cnc3c(N)ncnc32)[C@@H](O)[C@@H]1O [Example 5, 9-[5-O-(3-methylbutyryl)-β-D-arabinofuranosyl]-adenine] | 16400 µg/mL (≈ 46.7 mM) |
| CCCCCC(=O)OC[C@H]1O[C@@H](n2cnc3c(N)ncnc32)[C@@H](O)[C@@H]1O [Example 7, 9-(5-O-hexanoyl-β-D-arabinofuranosyl)adenine] | 2500 µg/mL (≈ 6.84 mM) |
| CCC(=O)OC[C@H]1O[C@@H](n2cnc3c(N)ncnc32)[C@@H](O)[C@@H]1O [Example 2, 9-(5-O-propionyl-β-D-arabinofuranosyl)adenine] | 9200 µg/mL (≈ 28.5 mM) |
| CCCCC(=O)OC[C@H]1O[C@@H](n2cnc3c(N)ncnc32)[C@@H](O)[C@@H]1O [Example 4] | 8400 µg/mL (≈ 23.9 mM) |
